Results as given in patent publication US8592422B2, “Bicyclic triazole and pyrazole lactams as allosteric modulators of mGluR5 receptors” (Vanderbilt University, priority 2010, dated 2013).
Where two headings read alike, the source gives them in different places.

What was measured:
human mGluR5a receptor = target: T1, human mGluR5a receptor (Homo sapiens, UniProt P41594); test: Cell-based functional Ca2+ mobilization assay (FDSS), potentiation of glutamate EC20 response; conditions: for EC50: HEK cells transfected with human mGluR5 (H10H or H12H), in presence of EC20 glutamate; for Emax: maximum % effect in concentration-response curve, as percent of response to maximally effective glutamate
T1 construct: cDNA subcloned into pcDNA3.1(-)
Procedure, shortened: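 HEK293A cells stably expressing human mGluR5a (H10H or H12H clones), plated overnight in glutamate-glutamine-free medium, loaded with Ca2+-sensitive dye (e.g. Fluo-4) and read on FDSS.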

T1 sequence (P41594 21-1180 isoform P41594-2 limits assumed): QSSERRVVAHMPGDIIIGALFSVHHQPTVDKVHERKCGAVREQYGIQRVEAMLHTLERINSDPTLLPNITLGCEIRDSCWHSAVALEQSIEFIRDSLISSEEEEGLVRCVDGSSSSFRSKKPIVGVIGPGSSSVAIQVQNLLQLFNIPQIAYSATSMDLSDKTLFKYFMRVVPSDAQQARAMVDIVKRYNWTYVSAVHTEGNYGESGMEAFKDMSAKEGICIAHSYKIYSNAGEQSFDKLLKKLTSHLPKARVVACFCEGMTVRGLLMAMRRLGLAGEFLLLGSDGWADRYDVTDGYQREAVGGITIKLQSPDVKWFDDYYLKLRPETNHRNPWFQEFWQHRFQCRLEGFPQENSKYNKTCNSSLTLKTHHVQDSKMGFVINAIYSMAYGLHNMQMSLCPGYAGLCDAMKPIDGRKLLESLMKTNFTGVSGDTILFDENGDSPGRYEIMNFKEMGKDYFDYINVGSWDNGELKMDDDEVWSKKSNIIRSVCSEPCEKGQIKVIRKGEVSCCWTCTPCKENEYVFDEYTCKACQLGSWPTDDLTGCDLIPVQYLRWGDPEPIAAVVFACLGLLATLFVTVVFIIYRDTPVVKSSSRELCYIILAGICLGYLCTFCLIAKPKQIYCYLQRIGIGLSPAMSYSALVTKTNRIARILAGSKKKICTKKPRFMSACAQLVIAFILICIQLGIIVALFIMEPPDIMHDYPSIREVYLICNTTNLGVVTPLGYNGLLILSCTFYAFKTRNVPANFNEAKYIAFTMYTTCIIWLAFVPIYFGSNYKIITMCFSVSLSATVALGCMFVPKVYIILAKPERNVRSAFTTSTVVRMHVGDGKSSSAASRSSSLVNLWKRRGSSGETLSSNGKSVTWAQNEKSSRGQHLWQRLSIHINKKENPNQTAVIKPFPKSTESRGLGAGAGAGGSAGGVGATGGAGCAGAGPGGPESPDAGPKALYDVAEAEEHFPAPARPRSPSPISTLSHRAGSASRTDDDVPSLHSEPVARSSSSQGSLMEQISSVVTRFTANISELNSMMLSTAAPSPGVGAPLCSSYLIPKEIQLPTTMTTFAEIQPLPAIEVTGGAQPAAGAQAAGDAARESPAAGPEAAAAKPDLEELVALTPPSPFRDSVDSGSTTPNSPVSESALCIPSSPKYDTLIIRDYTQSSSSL

Row | SMILES | EC50 (human mGluR5a receptor; read-out: EC50) | Emax (human mGluR5a receptor) | melting point | EC50 (human mGluR5a receptor; read-out: pEC50 (converted)) | EC50 (human mGluR5a receptor; EC50 (nM))
1 | O=C1c2cc(COc3ncccn3)nn2CCN1c1ccc(F)cc1 [Example 194] | > 10000 nM | 50% | 179.5 °C |  | 
2 | Cc1cccc(N2CCn3nc(COc4ccccn4)cc3C2=O)n1 [Example 206] | 1510 nM | 67% | 109.8 °C |  | 
3 | Cc1ccnc(N2CCn3nc(COc4ccccc4)cc3C2=O)c1 [Example 17] | 490 nM | 72% | 131.3 °C |  | 
4 | COc1nccnc1N1C(=O)c2cc(COc3ccccc3)nn2C[C@H]1C [Example 149] | 794 nM | 64% | 104.9 °C |  | 
5 | Cc1cnccc1OCc1cc2n(n1)CCN(c1ccc(F)cc1)C2=O [Example 189] | 4900 nM | 45% | 168.3 °C |  | 
6 | O=C1c2cc(COc3ccccc3)nn2CCN1c1ccccc1F [Example 9] |  | 82% | 154.7 °C |  | 162 nM
7 | Cc1ccc(N2CCn3nc(COc4ccccn4)cc3C2=O)cc1 [Example 218] | 470 nM | 69% | > 300 °C |  | 
8 | N#Cc1ccnc(OCc2cc3n(n2)CCN(c2ccc(F)cc2)C3=O)c1 [Example 193] | 437 nM | 53% | 202.6 °C |  | 
9 | Cc1nc(N2C(=O)c3cc(COc4ccccc4)nn3C[C@@H]2C)ccc1F [Example 138] | 316 nM | 59% | 93.3 °C |  | 
10 | O=C1c2cc(COc3ccccc3)nn2CCN1c1ncccc1Cl [Example 68] | 324 nM | 68% | 127.5 °C |  | 
11 | O=C1c2cc(COc3ccccc3)nn2CCN1c1ccncc1 [Example 14] | 1480 nM | 72% | 271.3 °C |  | 
12 | O=C1c2cc(COc3ccc(F)cn3)nn2CCN1c1ccc(F)cc1 [Example 181] | > 10000 nM | 52% | 239.4 °C |  | 
13 | O=C1c2cc(COc3cnccn3)nn2CCN1c1ccc(F)cc1 [Example 197] | > 10000 nM | 58% | 144.8 °C |  | 
14 | Cc1cncc(N2CCn3nc(COc4ccccc4)cc3C2=O)c1 [Example 22] | 1200 nM | 74% | 155.3 °C |  | 
15 | Cc1ccc(N2CCn3nc(COc4ccccc4)cc3C2=O)nn1 [Example 84] | > 10000 nM | 53% | 166.7 °C |  | 
16 | O=C1c2cc(COc3ccccc3)nn2CCN1c1ccncn1 [Example 80] | 1290 nM | 71% | 148.9 °C |  | 
17 | O=C1c2cc(COc3cncc(F)c3)nn2CCN1CC1CC1 [Example 171] | > 10000 nM | 51% | 110.7 °C |  | 

The remaining compounds from weak to strong by EC50 (human mGluR5a receptor; read-out: EC50), led by results:

Row | EC50 (human mGluR5a receptor; read-out: EC50) | Emax (human mGluR5a receptor) | melting point | EC50 (human mGluR5a receptor; read-out: pEC50 (converted)) | SMILES | EC50 (human mGluR5a receptor; EC50 (nM))
18 | 219 nM | 53% | 131.9 °C |  | COc1cc(N2CCn3nc(COc4ccccc4)cc3C2=O)nc(C)n1 [Example 105] | 
19 | 174 nM | 60% | 180.2 °C |  | O=C1c2cc(COc3ccccc3)nn2CCN1CC1CC1(F)F (centres unmarked) [Example 28] | 
20 | 170 nM | 64% | 128.1 °C |  | CC1CN(c2cccc(F)c2)C(=O)c2cc(COc3ccc(F)cc3)nn21 (racemic) [Example 235] | 
21 | 162 nM | 84% | 129.7 °C |  | Cc1cccc(N2CCn3nc(COc4ccccc4)cc3C2=O)n1 [Example 10] | 
22 | 151 nM | 64% | 123.5 °C |  | Cc1nc(N2CC(C)n3nc(COc4ccc(F)cc4)cc3C2=O)ccc1F (racemic) [Example 236] | 
23 | 130 nM | 57% | 115.8 °C |  | CCOc1cccc(N2CCn3nc(COc4ccccc4)cc3C2=O)c1 [Example 59] | 
24 | 115 nM | 61% | > 300 °C |  | O=C1c2cc(COc3cccc(F)c3)nn2CCN1c1ccc(F)cn1 [Example 178] | 
25 | 98 nM | 63% | 148.2 °C | 100 nM | Cc1ccccc1N1CCn2nc(COc3ccc(F)cc3)cc2C1=O [Example 223] | 
26 | 91 nM | 72% | 134.7 °C |  | Cc1cc(N2CCn3nc(COc4ccccc4)cc3C2=O)ncc1F [Example 72] | 
27 | 76 nM | 71% | 116.3 °C |  | Cc1cc(F)cc(N2CCn3nc(COc4ccccc4)cc3C2=O)c1 [Example 297] | 
28 | 29 nM | 72% | 171.5 °C | 29.5 nM | Cc1ccccc1N1C(=O)c2cc(COc3ccccc3)nn2C[C@H]1C [Example 154] | 
